Source: US20110172297A1, “Oxopiperdinyl And Pyranyl Sulfonamides and Pharmaceutical Compositions Thereof” (Pfizer Inc, priority 2008, published 2011)

system: AMPA receptors; test: AMPA ES cell FLIPR screen (AMPA Potentiator Assay); format: cell-based; conditions: murine ES cell-derived neurons, FLIPR Fluo-4 calcium signal, 32 uM AMPA challenge; values marked * are the geometric mean of 2-9 EC50 determinations
Protocol: The murine ES cell line used was E14-Sx1-16C, which has a targeted mutation in the Sox1 gene, a neuroectodermal marker, that offers G418 resistance when the Sox1 gene is expressed (Stem Cell Sciences). ES cells were maintained undifferentiated as previously described (Roach). […] ES cells were plated on gelatin-coated dishes (BD Biosciences), the media was changed daily and the cells were dissociated with 0.05% Trypsin EDTA (Invitrogen) every other day.
Embryoid Body Formation: Prior to embryoid body (EB) formation the ES cells were weaned from FBS onto Knockout Serum Replacement (KSR) (Invitrogen). To form EBs, ES cells were dissociated into a single cell suspension, then 3×10^6 cells were plated in bacteriology dishes (Nunc 4014) and grown as a suspension culture in NeuroEB-I medium that consisted of Knockout™ D-MEM (Invitrogen), supplemented with 10% KSR (Invitrogen), 0.2 mM L-Glutamine (Invitrogen), 0.1 mM MEM non-essential amino acids (Invitrogen), 30 μg/ml Gentamicin (Invitrogen), 1000 u/ml ESGRO (Chemicon), 0.1 mM 2-Mercaptoethanl (Sigma) and 150 ng/ml Transferrin (Invitrogen). The plates were put on a Stovall Belly Button shaker in an atmospheric oxygen incubator. The media was changed on day 2 of EB formation with NeuroEB-I and on day 4 with NeuroEB-II (NeuroEB-I plus 1 μg/ml mNoggin [R&D Systems]).
Neuronal Precursor Selection and Expansion: On day 5 of EB formation, EBs were dissociated with 0.05% Trypsin EDTA, and 4×10^6cells/100 mm dish were plated on Laminin coated tissue culture dishes in Neuroll-G418 medium that consisted of a base medium of a 1:1 mixture of D-MEM/F12 supplemented with N2 supplements and NeuroBasal Medium supplemented with B27 supplement and 0.1 mM L-Glutamine (all from Invitrogen). The base medium was then supplemented with 10 ng/ml bFGF (Invitrogen), 1 μg/ml mNoggin, 500 ng/ml SHH—N, 100 ng/ml FGF-8b (R&D Systems), 1 μg/ml Laminin and 200 μg/ml G418 (Invitrogen) for selection of neuronal precursors expressing Sox-1. The plates were put in an incubator that contained 2% Oxygen and were maintained in these conditions. During the 6-day selection period, the Neuroll media was changed daily. On day 6, the surviving neuronal precursor foci were dissociated with 0.05% Trypsin EDTA and the cells were plated at a density of 1.5×10^6 cells/100 mm Laminin coated dish in Neuroll-G418 medium. The cells were dissociated every other day for expansion, and prepared for Cryopreservation at passage 3 or 4. The crypreservation medium contained 50% KSR, 10% Dimethyl Sulfoxide (DMSO) (Sigma) and 40% Neurol-G418I medium. Neuronal precursors were crypreserved at a concentration of 4×10^6 cells/ml and 1 ml/cryovial in a controlled rate freezer overnight then transferred to an ultra-low freezer or liquid nitrogen for long-term storage.
Neuronal Differentiation: Cryopreserved ES cell-derived neuronal precursors were thawed by the rapid thaw method in a 37-degree water-bath. The cells were transferred from the cryovial to a 100 mm Laminin coated tissue culture dish that already contained Neuroll-G418 that had been equilibrated in a 2% Oxygen incubator. The media was changed with fresh Neuroll-G418 the next day. The cells were dissociated every other day as described above for expansion to generate enough cells to plate for the screen. For the screen, the cells were plated into 384-well poly-d-lysine coated tissue culture dishes (BD Biosciences) by the automated SelecT at a cell density of 6K cells/well in differentiation medium Neurolll that contained a 4:1 ratio of the NeuroBasalMedium/B27:D-MEM/F12/N2 supplemented with 1 μM cAMP (Sigma), 200 μM Ascorbic Acid (Sigma), 1 μg/ml Laminin (Invitrogen) and 10 ng/ml BDNF (R&D Systems). The plates were put in an incubator with 2% Oxygen and allowed to complete the differentiation process for 7 days. The cells could then be used over a 5-day period for the high throughput screen.
On the day of the assay, the FLIPR assay may be performed using the following methods: […]

SMILES	EC50
CC(C)S(=O)(=O)N[C@@H]1CCOC[C@@H]1c1ccc(-c2ccccc2)cc1 [Example 26, N-[(3R,4R)-3-biphenyl-4-yltetrahydro-2H-pyran-4-yl]propane-2-sulfonamide]	> 31.6 µM
CC(C)S(=O)(=O)N[C@H]1CCOC[C@@H]1c1ccc(-c2cccnc2)cc1 [Example 36, N-[(3R,4S)-3-(4-pyridin-3-ylphenyl)tetrahydro-2H-pyran-4-yl]propane-2-sulfonamide]	> 31.6 µM
CC(C)S(=O)(=O)N[C@@H]1CCCO[C@H]1c1ccc(-c2ccc(C#N)s2)cc1 [Example 49, N-{(2S,3R)-2-[4-(5-cyano-2-thienyl)phenyl]tetrahydro-2H-pyran-3-yl}propane-2-sulfonamide]	> 31.6 µM
CC(C)S(=O)(=O)N[C@@H]1COCC[C@H]1c1ccc(-c2ccccc2C#N)cc1 [Example 17, N-[(3S,4S)-4-(2′-cyanobiphenyl-4-yl)tetrahydro-2H-pyran-3-yl]propane-2-sulfonamide]	> 31.6 µM
CC(C)S(=O)(=O)N[C@@H]1COCC[C@]1(O)c1ccc(-c2ccccc2)cc1 [Example 4, N-[(3R,4S)-4-biphenyl-4-yl-4-hydroxytetrahydro-2H-pyran-3-yl]propane-2-sulfonamide]	> 31.6 µM
CC(C)S(=O)(=O)N[C@H]1COCC[C@H]1c1ccc(-c2ccc(C#N)cc2)cc1 [Example 61, N-[(3R,4S)-4-(4′-cyanobiphenyl-4-yl)tetrahydro-2H-pyran-3-yl]propane-2-sulfonamide]	> 31.6 µM
CC(C)S(=O)(=O)N[C@H]1COCC[C@H]1c1ccc(-c2ccccc2)cc1 [Example 55, N-[(3R,4S)-4-biphenyl-4-yltetrahydro-2H-pyran-3-yl]propane-2-sulfonamide]	> 31.6 µM
CC(C)S(=O)(=O)N[C@@H]1COCC[C@@]1(O)c1ccc(-c2ccccc2)cc1 [Example 6, N-[(3R,4R)-4-biphenyl-4-yl-4-hydroxytetrahydro-2H-pyran-3-yl]propane-2-sulfonamide]	> 31.6 µM
CC(C)S(=O)(=O)N[C@@H]1CCOC[C@H]1c1ccc(-c2ccc(C#N)cc2)cc1 [Example 39, N-[(3S,4R)-3-(4′-cyanobiphenyl-4-yl)tetrahydro-2H-pyran-4-yl]propane-2-sulfonamide]	> 31.6 µM
CCOc1ccccc1-c1ccc([C@@H]2OCCC[C@H]2NS(=O)(=O)C(C)C)cc1 [Example 45, N-[(2S,3R)-2-(2′-ethoxybiphenyl-4-yl)tetrahydro-2H-pyran-3-yl]propane-2-sulfonamide]	> 9.61 µM
CC(C)S(=O)(=O)N[C@@H]1CCCO[C@H]1c1ccc(-c2ccccc2)cc1 [Example 43, N-[(2S,3R)-2-biphenyl-4-yltetrahydro-2H-pyran-3-yl]propane-2-sulfonamide]	> 31.6 µM
CC(C)S(=O)(=O)N[C@@H]1COCC[C@@H]1c1ccc(-c2ccc(C#N)s2)cc1 [Example 58, N-{(3S,4R)-4-[4-(5-cyano-2-thienyl)phenyl]tetrahydro-2H-pyran-3-yl}propane-2-sulfonamide]	> 31.6 µM
CC(C)S(=O)(=O)N[C@@H]1COCC[C@@H]1c1ccc(-c2ccc(C#N)cc2)cc1 [Example 60, N-[(3S,4R)-4-(4′-cyanobiphenyl-4-yl)tetrahydro-2H-pyran-3-yl]propane-2-sulfonamide]	> 31.6 µM
CCOc1ccccc1-c1ccc([C@@H]2CCOC[C@H]2NS(=O)(=O)C(C)C)cc1 [Example 7, N-[(3S,4S)-4-(2′-ethoxybiphenyl-4-yl)tetrahydro-2H-pyran-3-yl]propane-2-sulfonamide]	> 31.6 µM
CC(C)S(=O)(=O)N[C@@H]1CCOC[C@@H]1c1ccc(-c2ccc(C#N)s2)cc1 [Example 21, N-{(3R,4R)-3-[4-(5-cyano-2-thienyl)phenyl]tetrahydro-2H-pyran-4-yl}propane-2-sulfonamide]	> 31.6 µM

Results, then the molecule that gave them:

EC50	SMILES
1.24 µM	CC(C)S(=O)(=O)N[C@H]1CCCO[C@@H]1c1ccc(-c2ccccc2C#N)cc1 [Example 46, N-[(2R,3S)-2-(2′-cyanobiphenyl-4-yl)tetrahydro-2H-pyran-3-yl]propane-2-sulfonamide]
0.403 µM	CCOc1ccccc1-c1ccc([C@H]2CCOC[C@@H]2NS(=O)(=O)C(C)C)cc1 [Example 8, N-[(3R,4R)-4-(2′-ethoxybiphenyl-4-yl)tetrahydro-2H-pyran-3-yl]propane-2-sulfonamide]
0.826 µM	CC(C)S(=O)(=O)N[C@H]1CCOC[C@@H]1c1ccc(-c2ccc(C#N)s2)cc1 [Example 41, N-{(3R,4S)-3-[4-(5-cyano-2-thienyl)phenyl]tetrahydro-2H-pyran-4-yl}propane-2-sulfonamide]
20.3 µM	CC(C)S(=O)(=O)N[C@@H]1CCCO[C@H]1c1ccc(-c2ccccc2C#N)cc1 [Example 47, N-[(2S,3R)-2-(2′-cyanobiphenyl-4-yl)tetrahydro-2H-pyran-3-yl]propane-2-sulfonamide]
0.378 µM	CC(C)S(=O)(=O)N[C@H]1CCOC[C@H]1c1ccc(-c2ccc(F)cc2C#N)cc1 [Example 24, N-[(3S,4S)-3-(2′-cyano-4′-fluorobiphenyl-4-yl)tetrahydro-2H-pyran-4-yl]propane-2-sulfonamide]
0.318 µM	CC(C)S(=O)(=O)N[C@H]1CCOC[C@@H]1c1ccc(-c2ccccc2C#N)cc1 [Example 31, N-[(3R,4S)-3-(2′-cyanobiphenyl-4-yl)tetrahydro-2H-pyran-4-yl]propane-2-sulfonamide]
9.79 µM	CC(C)S(=O)(=O)N[C@H]1COCC[C@@H]1c1ccc(-c2ccc(C#N)s2)cc1 [Example 20, N-{(3R,4R)-4-[4-(5-cyano-2-thienyl)phenyl]tetrahydro-2H-pyran-3-yl}propane-2-sulfonamide]
2.36 µM	CC(C)S(=O)(=O)N[C@H]1CCC(=O)N[C@@H]1c1ccc(-c2ccc(C#N)s2)cc1 [Example 53, N-{(2R,3S)-2-[4-(5-cyano-2-thienyl)phenyl]-6-oxopiperidin-3-yl}propane-2-sulfonamide]
0.429 µM	CC(C)S(=O)(=O)N[C@H]1CCOC[C@H]1c1ccc(-c2ccccc2C#N)cc1 [Example 22, N-[(3S,4S)-3-(2′-cyanobiphenyl-4-yl)tetrahydro-2H-pyran-4-yl]propane-2-sulfonamide]
0.415 µM	CC(C)S(=O)(=O)N[C@H]1COCC[C@@H]1c1ccc(-c2ccccc2C#N)cc1 [Example 18, N-[(3R,4R)-4-(2′-cyanobiphenyl-4-yl)tetrahydro-2H-pyran-3-yl]propane-2-sulfonamide]
1.04 µM	CC(C)S(=O)(=O)N[C@H]1CCOC[C@@H]1c1ccc(-c2ccc(C#N)cc2)cc1 [Example 38, N-[(3R,4S)-3-(4′-cyanobiphenyl-4-yl)tetrahydro-2H-pyran-4-yl]propane-2-sulfonamide]
4.45 µM	CC(C)S(=O)(=O)N[C@H]1CCCO[C@@H]1c1ccc(-c2ccccc2)cc1 [Example 9, N-[(2R,3S)-2-biphenyl-4-yltetrahydro-2H-pyran-3-yl]propane-2-sulfonamide]
5.64 µM	CC(C)S(=O)(=O)N[C@H]1CCCO[C@@H]1c1ccc(-c2ccc(C#N)s2)cc1 [Example 48, N-{(2R,3S)-2-[4-(5-cyano-2-thienyl)phenyl]tetrahydro-2H-pyran-3-yl}propane-2-sulfonamide]
0.684 µM	CC(C)S(=O)(=O)N[C@H]1CCOC[C@H]1c1ccc(-c2ccccc2)cc1 [Example 25, N-[(3S,4S)-3-biphenyl-4-yltetrahydro-2H-pyran-4-yl]propane-2-sulfonamide]
7.66 µM	CC(C)S(=O)(=O)N[C@H]1COCC[C@]1(O)c1ccc(-c2ccccc2)cc1 [Example 5, N-[(3S,4S)-4-biphenyl-4-yl-4-hydroxytetrahydro-2H-pyran-3-yl]propane-2-sulfonamide]
